Test results taken from PubChem BioAssay (NCI).
Several values for one entry are separate records, joined by “and”; a condition that tells them apart may be missing. Equal values may be shown once.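 Tested at 5 concentrations; 48 h exposure; 96-well plates; endpoints linearly interpolated, else capped at highest concentration. GI50 marks 50% less growth. TGI: concentration producing complete growth inhibition.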

Tests used:
Assay in all cases: NCI tumour cell line growth inhibition, 48 h
[1] = test system: SF-295 CNS
[2] = test system: SN12C renal
[3] = test system: NCI-H23 lung
[4] = test system: SK-MEL-5 melanoma
[5] = test system: CCRF-CEM leukemia
[6] = test system: NCI/ADR-RES ovarian
[7] = test system: DMS 114 small cell lung
[8] = test system: MALME-3M melanoma
[9] = test system: DMS 273 small cell lung
[10] = test system: HT29 colon
[11] = test system: SN12K1 renal
[12] = test system: UACC-62 melanoma
[13] = test system: RPMI-8226 leukemia
[14] = test system: P388/ADR leukemia
[15] = test system: HOP-62 NSCLC
[16] = test system: RXF 393 renal
[17] = test system: UACC-257 melanoma
[18] = test system: A549 NSCLC
[19] = test system: NCI-H522 lung
[20] = test system: IGROV1 ovarian
[21] = test system: COLO 205 colon
[22] = test system: HCC-2998 colon
[23] = test system: SF-268 CNS
[24] = test system: SNB-75 CNS
[25] = test system: SNB-78 CNS
[26] = test system: OVCAR-8 ovarian
[27] = test system: SK-MEL-28 melanoma
[28] = test system: OVCAR-5 ovarian
[29] = test system: K-562 leukemia
[30] = test system: KM12 colon
[31] = test system: HOP-18 NSCLC
[32] = test system: EKVX NSCLC
[33] = test system: DLD-1 colon
[34] = test system: XF 498 CNS
[35] = test system: HL-60(TB) leukemia
[36] = test system: OVCAR-3 ovarian
[37] = test system: MOLT-4 leukemia
[38] = test system: NCI-H226 lung
[39] = test system: SW-620 colon
[40] = test system: SK-OV-3 ovarian
[41] = test system: M19-MEL melanoma
[42] = test system: SK-MEL-2 melanoma
[43] = test system: MCF7 breast
[44] = test system: NCI-H460 lung
[45] = test system: SNB-19 CNS
[46] = test system: OVCAR-4 ovarian
[47] = test system: KM20L2 colon
[48] = test system: P388 leukemia
[49] = test system: LOX IMVI melanoma
[50] = test system: A498 renal
[51] = test system: SF-539 CNS
[52] = test system: U251 CNS
[53] = test system: HCT-116 colon
[54] = test system: HCT-15 colon
[55] = test system: UO-31 renal
[56] = test system: CAKI-1 renal
[57] = test system: BT-549 breast
[58] = test system: MDA-N
[59] = test system: 786-0 renal
[60] = test system: PC-3 prostate
[61] = test system: ACHN renal
[62] = test system: MDA-MB-435
[63] = test system: M14 melanoma
[64] = test system: MDA-MB-231 breast
[65] = test system: TK-10 renal
[66] = test system: DU-145 prostate
[67] = test system: T-47D breast
[68] = test system: HS 578T breast

In the case of `CSCC[C@@H](NC(=O)[C@H](CC(C)C)NC(=O)C(Cc1cnc[nH]1)NC(=O)CNC(=O)[C@@H](NC(=O)[C@H](C)NC(=O)[C@H](Cc1cn(C=O)c2ccccc12)NC(=O)[C@H](CCC(N)=O)NC(=O)[C@@H](N)CC(N)=O)C(C)C)C(N)=O` (stereo partly specified), the TGI [1] is reported as > 100 µM, the TGI [2] is reported as > 100 µM and the TGI [3] is reported as > 100 µM. For the same molecule, the TGI [4] was > 100 µM, the TGI [5] was > 100 µM and the TGI [6] was > 100 µM. The TGI [7] was > 100 µM, the TGI [8] was > 100 µM and the TGI [9] was > 100 µM. For the same molecule, the TGI [10] was > 100 µM, the TGI [11] was > 100 µM and the TGI [12] was > 100 µM. The TGI [13] was > 100 µM, the TGI [14] was > 100 µM and the TGI [15] was > 100 µM. The TGI [16] was > 100 µM, the TGI [17] was > 100 µM and the TGI [18] was > 100 µM. The TGI [19] was > 100 µM, the TGI [20] was > 100 µM and the TGI [21] was > 100 µM. The TGI [22] was > 100 µM, the TGI [23] was > 100 µM and the TGI [24] was > 100 µM. The TGI [25] was > 100 µM, the TGI [26] was > 100 µM and the TGI [27] was > 100 µM. The TGI [28] was > 100 µM, the TGI [29] was > 100 µM and the TGI [30] was > 100 µM. The TGI [31] was > 100 µM, the TGI [32] was > 100 µM and the TGI [33] was > 100 µM. For the same molecule, the TGI [34] was > 100 µM, the TGI [35] was > 100 µM and the TGI [36] was > 100 µM. The TGI [37] was > 100 µM, the TGI [38] was > 100 µM and the TGI [39] was > 100 µM. For the same molecule, the TGI [40] was > 100 µM, the TGI [41] was > 100 µM and the TGI [42] was > 100 µM. For the same molecule, the TGI [43] was > 100 µM, the TGI [44] was > 100 µM and the TGI [45] was > 100 µM. For the same molecule, the TGI [46] was > 100 µM, the TGI [47] was > 100 µM and the TGI [48] was > 100 µM. For the same molecule, the TGI [49] was > 100 µM, the TGI [50] was > 100 µM and the TGI [51] was > 100 µM. For the same molecule, the TGI [52] was > 100 µM, the TGI [53] was > 100 µM and the TGI [54] was > 100 µM. The TGI [55] was > 100 µM.

`Nc1ncnc2c1ncn2C1OC(CO)C(O)C1O` (stereo unspecified) was tested, and the TGI [56] was > 100 µM and > 450 µM and 74.9 µM, the GI50 [1] was > 100 µM and 215 µM and 32.6 µM and the TGI [1] was > 450 µM. The GI50 [2] was 16 µM, the TGI [2] was > 100 µM and 393 µM and 97.6 µM and the GI50 [57] was 7.69 µM. The TGI [57] was 59 µM, the TGI [3] was > 100 µM and > 450 µM and 77.3 µM and the TGI [58] was > 100 µM. The GI50 [4] was > 100 µM and > 450 µM and 46.2 µM, the TGI [4] was > 450 µM and the GI50 [5] was > 100 µM. For the same molecule, the TGI [5] was > 284 µM, the GI50 [6] was 5.06 µM and the TGI [7] was > 437 µM. The GI50 [8] was 51.3 µM, the TGI [8] was > 422 µM and the TGI [9] was > 450 µM. The TGI [10] was > 450 µM, the TGI [11] was > 450 µM and the GI50 [12] was > 100 µM and 247 µM and 27.2 µM. The TGI [12] was > 450 µM, the TGI [13] was > 100 µM and > 450 µM and 60.8 µM and the TGI [14] was 144 µM. The GI50 [15] was 11.7 µM, the TGI [15] was > 100 µM and 184 µM and 47.9 µM and the GI50 [16] was 22.5 µM. The TGI [16] was > 100 µM and 290 µM and 64.1 µM, the GI50 [59] was 9.22 µM and the TGI [59] was > 100 µM. For the same molecule, the GI50 [17] was > 450 µM, the TGI [17] was > 450 µM and the GI50 [18] was 22.3 µM. The TGI [18] was > 388 µM, the TGI [19] was > 295 µM and the GI50 [20] was > 450 µM. For the same molecule, the TGI [20] was > 450 µM, the GI50 [21] was > 100 µM and > 450 µM and 60.3 µM and the TGI [21] was > 450 µM. For the same molecule, the GI50 [22] was 1.61 µM, the GI50 [23] was 38.7 µM and the TGI [23] was > 450 µM. The GI50 [24] was 11.6 µM, the TGI [24] was > 100 µM and 331 µM and 38.2 µM and the TGI [25] was > 450 µM. The GI50 [26] was 32.9 µM and 79.3 µM and 12.6 µM, the TGI [26] was > 401 µM and the GI50 [27] was > 100 µM and 313 µM and 62.3 µM. For the same molecule, the TGI [27] was > 450 µM, the GI50 [60] was 1.44 µM and the TGI [60] was > 100 µM and 12.8 µM. The GI50 [28] was > 100 µM and 257 µM and 34.6 µM, the TGI [28] was > 450 µM and the TGI [29] was > 450 µM. For the same molecule, the TGI [30] was > 450 µM, the TGI [31] was > 399 µM and the GI50 [32] was > 100 µM and 48.3 µM and 17 µM. The TGI [32] was > 100 µM and 152 µM and > 84.3 µM, the GI50 [61] was 30.4 µM and the TGI [61] was > 100 µM and 96.8 µM. For the same molecule, the TGI [33] was > 450 µM, the TGI [34] was > 450 µM and the GI50 [35] was 22.9 µM and 105 µM and 13.8 µM. For the same molecule, the TGI [35] was > 100 µM and 328 µM and 56 µM, the GI50 [37] was > 100 µM and 201 µM and the TGI [37] was > 450 µM. The GI50 [38] was > 100 µM and 213 µM and 25.5 µM, the TGI [38] was > 373 µM and the GI50 [39] was 19.3 µM. For the same molecule, the TGI [39] was > 450 µM, the GI50 [40] was > 100 µM and 296 µM and 34 µM and the TGI [40] was > 450 µM. The GI50 [62] was 38.8 µM, the TGI [62] was > 100 µM and the TGI [41] was > 450 µM. For the same molecule, the GI50 [63] was 32.2 µM, the TGI [63] was > 100 µM and the TGI [42] was > 100 µM and > 450 µM and 75.7 µM. For the same molecule, the GI50 [44] was 4.23 µM, the TGI [44] was 181 µM and 32.2 µM and the GI50 [64] was 5.91 µM. For the same molecule, the TGI [64] was > 100 µM and 24.6 µM, the TGI [45] was > 450 µM and the TGI [46] was > 450 µM. The TGI [47] was > 450 µM, the GI50 [65] was 41.1 µM and the TGI [65] was > 100 µM. The TGI [48] was 111 µM, the GI50 [66] was 3.8 µM and the TGI [66] was 82.4 µM and 31.4 µM. For the same molecule, the GI50 [49] was 5.73 µM, the TGI [49] was > 450 µM and the GI50 [67] was 0.738 µM. For the same molecule, the TGI [67] was > 100 µM and 13.5 µM, the GI50 [68] was 16.2 µM and the TGI [68] was 54.4 µM. The GI50 [50] was 93.2 µM and 43.5 µM and 55.1 µM, the TGI [50] was > 100 µM and the GI50 [51] was 31.6 µM. The TGI [51] was > 450 µM, the GI50 [52] was > 100 µM and 273 µM and 30.6 µM and the TGI [52] was > 450 µM. For the same molecule, the GI50 [53] was 7.58 µM, the TGI [53] was > 450 µM and the TGI [54] was > 100 µM and > 450 µM and 62 µM. For the same molecule, the TGI [55] was > 450 µM.
